Laboratory results as given in PMC11864979, “First-in-class ultralong-target-residence-time p38α inhibitors as a mitosis-targeted therapy for colorectal cancer” (Nature Cancer, 2025).
Where two headings read alike, the source gives them in different places.

What was measured:
Experiment in all cases: selectivity profiling in a panel of 340 wild-type kinases (Reaction Biology Europe)
Type in all cases: binding
340 wild-type kinases [1] = target: T1, 340 wild-type kinases (Homo sapiens, UniProt P10398, Y301D/Y302D)
T1 construct: purchased Reaction Biology Europe
T1 sequence (P10398 1-606 Y301D/Y302D): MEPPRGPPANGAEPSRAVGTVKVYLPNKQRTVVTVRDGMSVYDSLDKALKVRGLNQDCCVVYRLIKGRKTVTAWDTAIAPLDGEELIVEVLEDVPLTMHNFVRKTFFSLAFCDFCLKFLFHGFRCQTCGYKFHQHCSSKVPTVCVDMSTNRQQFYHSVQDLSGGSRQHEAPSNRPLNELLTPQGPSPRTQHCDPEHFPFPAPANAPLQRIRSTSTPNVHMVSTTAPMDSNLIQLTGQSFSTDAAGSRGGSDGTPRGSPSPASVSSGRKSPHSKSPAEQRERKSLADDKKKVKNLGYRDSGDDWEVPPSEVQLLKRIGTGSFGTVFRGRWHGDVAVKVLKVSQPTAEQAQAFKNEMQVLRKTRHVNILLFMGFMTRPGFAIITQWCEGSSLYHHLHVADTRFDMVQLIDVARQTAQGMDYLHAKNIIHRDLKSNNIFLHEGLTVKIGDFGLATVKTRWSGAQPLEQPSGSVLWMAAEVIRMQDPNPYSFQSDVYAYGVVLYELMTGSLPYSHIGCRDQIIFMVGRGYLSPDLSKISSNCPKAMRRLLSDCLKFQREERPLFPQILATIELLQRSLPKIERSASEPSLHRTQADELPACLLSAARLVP

340 wild-type kinases [2] = target: T2, 340 wild-type kinases (Homo sapiens, UniProt Q13043)
T2 construct: purchased Reaction Biology Europe
T2 sequence (Q13043 1-487): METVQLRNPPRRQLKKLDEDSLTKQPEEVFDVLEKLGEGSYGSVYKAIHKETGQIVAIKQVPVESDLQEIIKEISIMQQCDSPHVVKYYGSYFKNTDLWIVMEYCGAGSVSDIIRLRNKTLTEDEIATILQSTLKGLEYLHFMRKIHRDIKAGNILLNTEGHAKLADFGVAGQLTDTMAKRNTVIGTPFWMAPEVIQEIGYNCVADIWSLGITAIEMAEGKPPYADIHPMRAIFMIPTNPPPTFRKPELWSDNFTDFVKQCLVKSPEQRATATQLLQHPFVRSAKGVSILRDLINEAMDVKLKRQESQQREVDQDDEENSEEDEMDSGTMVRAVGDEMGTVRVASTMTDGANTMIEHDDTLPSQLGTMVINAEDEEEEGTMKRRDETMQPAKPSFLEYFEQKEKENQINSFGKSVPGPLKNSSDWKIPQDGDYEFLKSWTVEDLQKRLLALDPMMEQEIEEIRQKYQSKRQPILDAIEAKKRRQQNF

340 wild-type kinases [3] = target: T3, 340 wild-type kinases (Homo sapiens, UniProt Q9Y463)
T3 construct: purchased Reaction Biology Europe
T3 sequence (Q9Y463 whole entry): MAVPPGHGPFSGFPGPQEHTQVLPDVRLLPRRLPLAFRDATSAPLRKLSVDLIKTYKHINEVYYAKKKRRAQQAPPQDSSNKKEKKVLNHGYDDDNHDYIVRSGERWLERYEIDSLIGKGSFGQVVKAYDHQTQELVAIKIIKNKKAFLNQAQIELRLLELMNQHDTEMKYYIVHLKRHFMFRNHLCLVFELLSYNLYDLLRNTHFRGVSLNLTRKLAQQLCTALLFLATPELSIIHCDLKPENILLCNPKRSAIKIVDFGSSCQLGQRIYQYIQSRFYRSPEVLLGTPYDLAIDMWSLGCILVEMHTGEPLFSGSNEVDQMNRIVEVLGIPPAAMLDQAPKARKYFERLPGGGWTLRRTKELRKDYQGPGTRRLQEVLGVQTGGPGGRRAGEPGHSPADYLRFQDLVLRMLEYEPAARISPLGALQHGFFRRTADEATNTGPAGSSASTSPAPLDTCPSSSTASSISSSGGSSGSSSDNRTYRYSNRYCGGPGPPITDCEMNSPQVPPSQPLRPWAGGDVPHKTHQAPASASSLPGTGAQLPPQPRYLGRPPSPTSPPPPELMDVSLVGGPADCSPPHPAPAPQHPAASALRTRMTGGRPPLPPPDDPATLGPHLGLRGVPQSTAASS

340 wild-type kinases [4] = target: T4, 340 wild-type kinases (Homo sapiens, UniProt Q9H4A3)
T4 construct: purchased Reaction Biology Europe
T4 sequence (Q9H4A3 whole entry): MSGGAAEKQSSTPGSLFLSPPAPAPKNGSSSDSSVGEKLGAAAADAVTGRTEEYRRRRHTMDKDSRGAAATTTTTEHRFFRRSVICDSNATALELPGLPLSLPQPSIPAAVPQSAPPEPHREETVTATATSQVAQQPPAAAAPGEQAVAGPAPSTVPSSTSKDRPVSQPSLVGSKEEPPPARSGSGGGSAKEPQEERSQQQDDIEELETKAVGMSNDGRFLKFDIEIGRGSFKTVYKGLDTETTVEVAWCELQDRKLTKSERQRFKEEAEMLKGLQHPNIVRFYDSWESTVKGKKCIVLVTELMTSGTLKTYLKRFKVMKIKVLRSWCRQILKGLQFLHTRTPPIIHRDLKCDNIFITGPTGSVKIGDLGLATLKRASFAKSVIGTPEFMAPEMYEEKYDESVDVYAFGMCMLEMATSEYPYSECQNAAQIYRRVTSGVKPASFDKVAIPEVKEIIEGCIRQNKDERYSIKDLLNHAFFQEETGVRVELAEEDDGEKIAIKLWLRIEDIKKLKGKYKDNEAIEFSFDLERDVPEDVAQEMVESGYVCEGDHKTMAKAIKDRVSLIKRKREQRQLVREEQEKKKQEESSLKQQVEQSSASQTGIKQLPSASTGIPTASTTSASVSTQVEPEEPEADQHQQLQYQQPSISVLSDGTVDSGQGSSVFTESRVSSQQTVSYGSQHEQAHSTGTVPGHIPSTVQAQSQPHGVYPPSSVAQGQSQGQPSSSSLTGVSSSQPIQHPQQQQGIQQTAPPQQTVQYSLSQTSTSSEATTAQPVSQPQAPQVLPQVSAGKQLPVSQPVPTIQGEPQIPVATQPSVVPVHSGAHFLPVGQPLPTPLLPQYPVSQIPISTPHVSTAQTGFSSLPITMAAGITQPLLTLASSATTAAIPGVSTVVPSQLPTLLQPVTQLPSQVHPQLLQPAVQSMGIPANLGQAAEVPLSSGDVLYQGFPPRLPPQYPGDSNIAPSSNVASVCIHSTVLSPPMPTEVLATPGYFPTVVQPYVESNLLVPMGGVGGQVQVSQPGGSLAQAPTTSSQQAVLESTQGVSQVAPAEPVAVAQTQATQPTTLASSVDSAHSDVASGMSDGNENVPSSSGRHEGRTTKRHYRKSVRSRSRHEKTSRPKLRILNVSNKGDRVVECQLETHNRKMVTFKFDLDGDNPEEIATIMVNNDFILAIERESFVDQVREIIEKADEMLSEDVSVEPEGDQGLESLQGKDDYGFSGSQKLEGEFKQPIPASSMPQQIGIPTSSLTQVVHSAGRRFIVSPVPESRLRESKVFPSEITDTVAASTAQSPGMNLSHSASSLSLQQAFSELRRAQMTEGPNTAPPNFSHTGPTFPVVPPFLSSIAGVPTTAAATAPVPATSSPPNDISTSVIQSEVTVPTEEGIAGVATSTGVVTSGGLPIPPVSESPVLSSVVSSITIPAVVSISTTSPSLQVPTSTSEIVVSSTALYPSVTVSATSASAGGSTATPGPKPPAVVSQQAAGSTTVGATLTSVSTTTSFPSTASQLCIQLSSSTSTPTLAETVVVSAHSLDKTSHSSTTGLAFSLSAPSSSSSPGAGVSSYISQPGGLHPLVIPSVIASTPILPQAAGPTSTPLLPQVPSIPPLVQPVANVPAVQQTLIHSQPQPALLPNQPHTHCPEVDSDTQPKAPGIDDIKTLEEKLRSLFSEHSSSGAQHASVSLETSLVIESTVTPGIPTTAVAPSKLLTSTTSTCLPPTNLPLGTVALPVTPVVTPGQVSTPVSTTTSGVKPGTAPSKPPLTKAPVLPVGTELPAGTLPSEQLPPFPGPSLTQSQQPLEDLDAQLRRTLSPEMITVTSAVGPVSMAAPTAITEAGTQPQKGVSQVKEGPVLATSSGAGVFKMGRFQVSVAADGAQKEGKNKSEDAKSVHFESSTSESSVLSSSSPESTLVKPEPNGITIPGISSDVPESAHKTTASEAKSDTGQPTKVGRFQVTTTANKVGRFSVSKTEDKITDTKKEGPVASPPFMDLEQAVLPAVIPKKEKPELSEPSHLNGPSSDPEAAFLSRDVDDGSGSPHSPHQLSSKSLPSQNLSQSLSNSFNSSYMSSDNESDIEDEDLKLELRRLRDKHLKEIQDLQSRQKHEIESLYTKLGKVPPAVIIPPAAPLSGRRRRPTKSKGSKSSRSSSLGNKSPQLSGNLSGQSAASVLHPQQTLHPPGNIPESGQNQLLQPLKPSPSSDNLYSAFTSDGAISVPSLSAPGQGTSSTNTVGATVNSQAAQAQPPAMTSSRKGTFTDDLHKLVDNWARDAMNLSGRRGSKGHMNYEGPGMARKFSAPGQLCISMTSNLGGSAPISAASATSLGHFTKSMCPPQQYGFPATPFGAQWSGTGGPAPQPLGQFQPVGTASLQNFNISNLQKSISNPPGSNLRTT

340 wild-type kinases [5] = target: T5, 340 wild-type kinases (Homo sapiens, UniProt Q96RR4)
T5 construct: purchased Reaction Biology Europe
T5 sequence (Q96RR4 whole entry): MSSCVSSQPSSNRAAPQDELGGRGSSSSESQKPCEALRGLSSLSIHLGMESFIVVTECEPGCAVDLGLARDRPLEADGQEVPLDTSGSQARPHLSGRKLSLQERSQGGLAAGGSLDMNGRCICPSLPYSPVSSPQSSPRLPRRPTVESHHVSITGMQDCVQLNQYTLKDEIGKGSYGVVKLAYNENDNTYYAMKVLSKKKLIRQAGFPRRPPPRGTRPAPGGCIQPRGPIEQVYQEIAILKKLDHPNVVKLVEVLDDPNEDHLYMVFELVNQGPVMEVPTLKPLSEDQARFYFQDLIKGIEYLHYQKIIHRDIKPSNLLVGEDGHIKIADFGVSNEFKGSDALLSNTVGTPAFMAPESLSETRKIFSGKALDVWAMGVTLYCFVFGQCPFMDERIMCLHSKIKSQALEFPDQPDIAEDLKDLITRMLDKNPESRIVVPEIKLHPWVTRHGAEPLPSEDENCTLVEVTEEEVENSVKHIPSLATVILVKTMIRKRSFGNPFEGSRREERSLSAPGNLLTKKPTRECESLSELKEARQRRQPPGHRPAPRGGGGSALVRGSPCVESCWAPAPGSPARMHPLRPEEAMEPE

340 wild-type kinases [6] = target: T6, 340 wild-type kinases (Homo sapiens, UniProt Q14004)
T6 construct: purchased Reaction Biology Europe
T6 sequence (Q14004 whole entry): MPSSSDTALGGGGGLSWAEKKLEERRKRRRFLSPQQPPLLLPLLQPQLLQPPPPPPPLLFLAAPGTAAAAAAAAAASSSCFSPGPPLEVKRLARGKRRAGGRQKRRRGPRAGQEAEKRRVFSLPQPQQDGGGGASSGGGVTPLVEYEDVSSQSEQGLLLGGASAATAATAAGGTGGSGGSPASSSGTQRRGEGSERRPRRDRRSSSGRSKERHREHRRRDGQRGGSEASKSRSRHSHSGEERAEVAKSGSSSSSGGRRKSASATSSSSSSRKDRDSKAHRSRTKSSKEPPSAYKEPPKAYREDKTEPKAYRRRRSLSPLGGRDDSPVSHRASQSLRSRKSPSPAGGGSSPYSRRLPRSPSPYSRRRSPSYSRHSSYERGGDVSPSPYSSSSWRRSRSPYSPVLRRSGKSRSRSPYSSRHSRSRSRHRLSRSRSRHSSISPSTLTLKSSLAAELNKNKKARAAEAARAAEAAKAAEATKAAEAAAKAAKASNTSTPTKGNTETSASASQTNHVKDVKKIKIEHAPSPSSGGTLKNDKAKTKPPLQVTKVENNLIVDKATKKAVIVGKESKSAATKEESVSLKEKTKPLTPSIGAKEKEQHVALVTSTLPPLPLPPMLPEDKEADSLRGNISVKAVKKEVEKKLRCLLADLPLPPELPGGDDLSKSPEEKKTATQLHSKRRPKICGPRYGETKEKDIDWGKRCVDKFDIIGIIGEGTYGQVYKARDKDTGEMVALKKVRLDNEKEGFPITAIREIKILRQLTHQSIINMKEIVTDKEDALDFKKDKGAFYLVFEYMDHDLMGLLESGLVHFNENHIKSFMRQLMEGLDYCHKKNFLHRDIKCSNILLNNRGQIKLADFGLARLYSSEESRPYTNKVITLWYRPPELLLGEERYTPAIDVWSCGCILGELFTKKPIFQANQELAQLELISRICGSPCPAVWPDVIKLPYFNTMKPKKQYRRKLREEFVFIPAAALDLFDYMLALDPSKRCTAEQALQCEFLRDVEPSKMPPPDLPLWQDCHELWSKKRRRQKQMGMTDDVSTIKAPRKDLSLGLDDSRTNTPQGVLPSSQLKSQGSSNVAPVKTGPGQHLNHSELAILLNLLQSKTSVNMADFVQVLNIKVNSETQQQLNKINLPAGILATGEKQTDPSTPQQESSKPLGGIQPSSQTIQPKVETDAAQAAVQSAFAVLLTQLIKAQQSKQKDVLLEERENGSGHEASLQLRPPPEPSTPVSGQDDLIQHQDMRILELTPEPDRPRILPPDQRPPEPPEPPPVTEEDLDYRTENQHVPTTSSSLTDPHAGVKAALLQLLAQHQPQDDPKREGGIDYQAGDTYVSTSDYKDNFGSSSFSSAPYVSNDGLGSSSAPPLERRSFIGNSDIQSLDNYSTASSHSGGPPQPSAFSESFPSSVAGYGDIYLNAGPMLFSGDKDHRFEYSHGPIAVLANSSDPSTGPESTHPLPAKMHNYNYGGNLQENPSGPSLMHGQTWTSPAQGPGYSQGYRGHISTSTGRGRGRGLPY

340 wild-type kinases [7] = target: T7, 340 wild-type kinases (Homo sapiens, UniProt Q02750)
T7 construct: purchased Reaction Biology Europe

340 wild-type kinases [8] = target: T8, 340 wild-type kinases (Homo sapiens, UniProt P08069)
T8 construct: purchased Reaction Biology Europe

340 wild-type kinases [9] = target: T9, 340 wild-type kinases (Homo sapiens, UniProt Q8IW41)
T9 construct: purchased Reaction Biology Europe
T9 sequence (Q8IW41 1-473): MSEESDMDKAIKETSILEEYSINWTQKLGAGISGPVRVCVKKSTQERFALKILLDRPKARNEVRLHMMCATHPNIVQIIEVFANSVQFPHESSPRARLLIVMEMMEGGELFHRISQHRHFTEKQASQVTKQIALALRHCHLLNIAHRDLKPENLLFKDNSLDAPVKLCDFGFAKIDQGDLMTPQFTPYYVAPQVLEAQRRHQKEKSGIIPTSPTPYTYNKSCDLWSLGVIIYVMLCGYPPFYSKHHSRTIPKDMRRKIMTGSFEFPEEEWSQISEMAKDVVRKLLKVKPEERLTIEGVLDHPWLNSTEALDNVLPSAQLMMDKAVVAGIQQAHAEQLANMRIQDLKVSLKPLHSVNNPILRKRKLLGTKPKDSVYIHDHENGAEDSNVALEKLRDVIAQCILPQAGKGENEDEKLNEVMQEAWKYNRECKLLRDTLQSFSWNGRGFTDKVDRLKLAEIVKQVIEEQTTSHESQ

340 wild-type kinases [10] = target: T10, 340 wild-type kinases (Homo sapiens, UniProt Q86Z02)
T10 construct: purchased Reaction Biology Europe

[11] = read-out: CDK13/CycK residual activity

CNC(=O)c1ccc2c(c1)C(=O)c1ccc(Nc3ccc(F)c(NC(=O)C4CC4)c3)cc1CC2 [Compound 2015]
remaining activity at 0.2 µM (340 wild-type kinases [1]; 0.2 µM 2015, read-out: ARAF YDYD residual activity): 98.8%
remaining activity at 1 µM (340 wild-type kinases [1]; 1 µM 2015, read-out: ARAF YDYD residual activity): 106%
remaining activity at 0.2 µM (340 wild-type kinases [1]; ARAF YDYD, 0.2 µM, read-out: residual activity): 98.8%
remaining activity at 1 µM (340 wild-type kinases [1]; ARAF YDYD, 1 µM, read-out: residual activity): 106%
remaining activity at 0.2 µM (340 wild-type kinases [2]; 0.2 µM 2015, read-out: MST1 residual activity): 98.1%
remaining activity at 1 µM (340 wild-type kinases [2]; 1 µM 2015, read-out: MST1 residual activity): 100%
remaining activity at 0.2 µM (340 wild-type kinases [2]; MST1, 0.2 µM, read-out: residual activity): 98.1%
remaining activity at 1 µM (340 wild-type kinases [2]; MST1, 1 µM, read-out: residual activity): 100%
remaining activity at 0.2 µM (340 wild-type kinases [3]; 0.2 µM 2015, read-out: DYRK1B residual activity): 96.9%
remaining activity at 1 µM (340 wild-type kinases [3]; 1 µM 2015, read-out: DYRK1B residual activity): 94.1%
remaining activity at 0.2 µM (340 wild-type kinases [3]; DYRK1B, 0.2 µM, read-out: residual activity): 96.9%
remaining activity at 1 µM (340 wild-type kinases [3]; DYRK1B, 1 µM, read-out: residual activity): 94.1%
remaining activity at 0.2 µM (340 wild-type kinases [4]; 0.2 µM 2015, read-out: WNK1 residual activity): 95%
remaining activity at 1 µM (340 wild-type kinases [4]; 1 µM 2015, read-out: WNK1 residual activity): 91.4%
remaining activity at 0.2 µM (340 wild-type kinases [4]; WNK1, 0.2 µM, read-out: residual activity): 95%
remaining activity at 1 µM (340 wild-type kinases [4]; WNK1, 1 µM, read-out: residual activity): 91.4%
remaining activity at 0.2 µM (340 wild-type kinases [5]; 0.2 µM 2015, read-out: CAMKK2 residual activity): 96%
remaining activity at 1 µM (340 wild-type kinases [5]; 1 µM 2015, read-out: CAMKK2 residual activity): 96.6%
remaining activity at 0.2 µM (340 wild-type kinases [5]; CAMKK2, 0.2 µM, read-out: residual activity): 96%
remaining activity at 1 µM (340 wild-type kinases [5]; CAMKK2, 1 µM, read-out: residual activity): 96.6%
remaining activity at 0.2 µM (340 wild-type kinases [6]; [11]): 87.3%
remaining activity at 1 µM (340 wild-type kinases [6]; [11]): 86.5%
remaining activity at 0.2 µM (340 wild-type kinases [6]; read-out: residual activity): 87.3%
remaining activity at 1 µM (340 wild-type kinases [6]; read-out: residual activity): 86.5%
remaining activity at 0.2 µM (340 wild-type kinases [7]; 0.2 µM 2015, read-out: MEK1 residual activity): 105%
remaining activity at 1 µM (340 wild-type kinases [7]; 1 µM 2015, read-out: MEK1 residual activity): 99.8%
remaining activity at 0.2 µM (340 wild-type kinases [7]; MEK1, 0.2 µM, read-out: residual activity): 105%
remaining activity at 1 µM (340 wild-type kinases [7]; MEK1, 1 µM, read-out: residual activity): 99.8%
remaining activity at 0.2 µM (340 wild-type kinases [8]; 0.2 µM 2015, read-out: IGF1R residual activity): 109%
remaining activity at 1 µM (340 wild-type kinases [8]; 1 µM 2015, read-out: IGF1R residual activity): 97.4%
remaining activity at 0.2 µM (340 wild-type kinases [8]; IGF1R, 0.2 µM, read-out: residual activity): 109%
remaining activity at 1 µM (340 wild-type kinases [8]; IGF1R, 1 µM, read-out: residual activity): 97.4%
remaining activity at 0.2 µM (340 wild-type kinases [9]; 0.2 µM 2015, read-out: MAPKAPK5 residual activity): 123%
remaining activity at 1 µM (340 wild-type kinases [9]; 1 µM 2015, read-out: MAPKAPK5 residual activity): 109%
remaining activity at 0.2 µM (340 wild-type kinases [9]; MAPKAPK5, 0.2 µM, read-out: residual activity): 123%
remaining activity at 1 µM (340 wild-type kinases [9]; MAPKAPK5, 1 µM, read-out: residual activity): 109%
remaining activity at 0.2 µM (340 wild-type kinases [10]; 0.2 µM 2015, read-out: HIPK1 residual activity): 98.9%
remaining activity at 1 µM (340 wild-type kinases [10]; 1 µM 2015, read-out: HIPK1 residual activity): 102%
remaining activity at 0.2 µM (340 wild-type kinases [10]; HIPK1, 0.2 µM, read-out: residual activity): 98.9%
remaining activity at 1 µM (340 wild-type kinases [10]; HIPK1, 1 µM, read-out: residual activity): 102%
